“Also recorded” adds a separate entry of the source.
How the values were obtained:
Assay type in all cases: in vivo, human
[1] = Serum sodium; conditions: active treatment cohorts, Parts 1 and 2
[2] = test system: serum aldosterone; test: Pharmacodynamics: serum aldosterone; conditions: for Aldosterone, mean observed: BL; for Aldosterone levels relative to baseline: Part 1 lorundrostat-treated (range across doses)
Source text: (§1) PK/PD Analysis Set includes all subjects in the SAF who have sufficient data available for the analysis of pharmacokinetic and pharmacodynamic measurements. In the analyses based on PKPD, subjects will be analyzed according to the actual treatment received.

[3] = test system: subjects with uncontrolled hypertension; test: 24-hour ambulatory blood pressure monitoring (ABPM); conditions: for Proportion of subjects with nighttime dip 10-20% in 24-hour systolic ABP / Proportion of subjects with nighttime dip <10% in 24-hour systolic ABP / Proportion of subjects with nighttime dip >20% in 24-hour systolic ABP: Part 1, FAS
Procedure: Ambulatory blood pressure monitoring was accomplished with an ambulatory blood pressure monitoring device that consists of a blood pressure cuff worn on a subject's arm attached to a small recording device that is typically attached to the subject's belt or waistband. The ABPM device is worn for 24 hours. Throughout that period, the device records the subject's blood pressure at regular intervals, during the subject's routine daily activities and while they are sleeping. The ABPM thus provides a complete record of the subject's blood pressure over a 24-hour period. 24-hour ABPM was measured in the clinic at baseline and Study Week 7. If, for any reason, the ABPM procedure was deemed a failure at the end of Study Week 7, it may have been repeated at Study Week 8 and therefore no imputation was employed regardless of use of rescue medications. Additionally, ABPM was also collected at the end of Study Week 4 in Part 2. If a repeat test was performed, it supersedes the original test results for that visit. Specific derived variables based on ABPM measurements include mean 24-hour, mean Daytime, and mean Nighttime of SBP, DBP, and heart rate. Change from baseline to Week 7 in 24-hour mean SBP (and DBP) based on ABPM will be analyzed using an ANCOVA with a term for treatment group and a baseline mean 24-hour value as a covariate. The nighttime dip is defined as 100% x(mean daytime SBP−mean nighttime SBP)/mean daytime SBP It is expressed as a percentage and is summarized by treatment group and visit using descriptive statistics. In addition, the number and percentage of subjects with nighttime dip in each of the dipper categories (Bloomfield & Park, 2015) is presented by treatment group and visit. The categories are: • (a) <10% • (b) 10-20% inclusive • (c) >20%

[4] = test system: 11-deoxycorticosterone; test: Pharmacodynamics: 11-deoxycorticosterone
Source text: as §1

[5] = Clinical laboratory evaluations, vital signs, physical examination, ECG
Source text: Safety endpoints of this study are: • (a) Incidence and severity of all spontaneously reported adverse events (AEs) • (b) Changes in vital signs (standing SBP, standing DBP, body temperature, heart rate, and respiratory rate) • (c) Changes in electrocardiogram parameters (including cardiac intervals: PR, QRS, QT, and corrected QT interval using Fridericia's formula) • (d) Changes in clinical laboratory assessments (hematology, chemistry, coagulation, and urinalysis) • (e) Change in office-measured SBP from Study Week 8 (end-of-treatment period to end of follow up (i.e. end of Study Week 12 for Part 1 and end of Study 10 for Part 2).

[6] = test system: plasma renin activity; test: Pharmacodynamics: plasma renin activity (PRA); conditions: for Renin Activity, mean observed: BL
Source text: as §1

[7] = test system: 11-deoxycortisol; test: Pharmacodynamics: plasma 11-deoxycortisol; conditions: for 11-Deoxycortisol, mean observed: BL
Source text: as §1

[8] = Part 1 active treatment arms, Week 4 compared with placebo

CC(=O)N[C@H]1CC[C@H](NC(=O)CN2CCN(c3nncc(-c4ccc(C)cc4)n3)CC2)CC1 [Compound A HBr]
Serum sodium levels [1]: decreased | Aldosterone, mean observed ([2]; Part 1, 12.5 mg BID): 6.636 ng/dL | Aldosterone, mean observed ([2]; Part 1, 12.5 mg QD): 7.065 ng/dL | Aldosterone, mean observed ([2]; Part 1, 25 mg BID): 6.558 ng/dL | Aldosterone, mean observed ([2]; Part 1, 50 mg QD): 6.205 ng/dL | Aldosterone, mean observed ([2]; Part 1, 100 mg QD): 6.533 ng/dL | Aldosterone levels relative to baseline ([2]; Week 4): −40.1% to 7.4% | Aldosterone levels relative to baseline ([2]; Week 12): −26.6% to 15.9% | Aldosterone, mean observed ([2]; Part 2, 100 mg QD): 6.435 ng/dL | Serum aldosterone levels ([2]; pharmacodynamic response across doses): dose-dependent reduction | Proportion of subjects with nighttime dip 10-20% in 24-hour systolic ABP ([3]; 12.5 mg BID, EoT): (31.3) % | Proportion of subjects with nighttime dip <10% in 24-hour systolic ABP ([3]; 12.5 mg BID, EoT): (68.8) % | LSM Δ with Placebo, change from baseline in Nighttime Mean DBP (ABPM, ANCOVA) ([3]; 12.5 mg QD, End of Treatment, Part 1, FAS post-hoc): −1.53 mmHg | Proportion of subjects with nighttime dip 10-20% in 24-hour systolic ABP ([3]; 12.5 mg QD, EoT): (35.7) % | Proportion of subjects with nighttime dip <10% in 24-hour systolic ABP ([3]; 12.5 mg QD, EoT): (64.3) % | Proportion of subjects with nighttime dip 10-20% in 24-hour systolic ABP ([3]; 25 mg BID, EoT): (16.7) % | Proportion of subjects with nighttime dip <10% in 24-hour systolic ABP ([3]; 25 mg BID, EoT): (79.2) % | Proportion of subjects with nighttime dip >20% in 24-hour systolic ABP ([3]; 25 mg BID, EoT): (4.2) % | Proportion of subjects with nighttime dip 10-20% in 24-hour systolic ABP ([3]; 50 mg QD, EoT): (21.4) % | Proportion of subjects with nighttime dip <10% in 24-hour systolic ABP ([3]; 50 mg QD, EoT): (78.6) % | Proportion of subjects with nighttime dip 10-20% in 24-hour systolic ABP ([3]; 100 mg QD, EoT): (45.8) % | Proportion of subjects with nighttime dip <10% in 24-hour systolic ABP ([3]; 100 mg QD, EoT): (45.8) % | Proportion of subjects with nighttime dip >20% in 24-hour systolic ABP ([3]; 100 mg QD, EoT): (8.3) % | Subjects with nighttime dip 10-20% in 24-hour systolic ABP ([3]; 100 mg QD, EoT, Part 2, FAS): 9 n | Subjects with nighttime dip <10% in 24-hour systolic ABP ([3]; 100 mg QD, EoT, Part 2, FAS): 18 n | Subjects with nighttime dip >20% in 24-hour systolic ABP ([3]; 100 mg QD, EoT, Part 2, FAS): 0 n | Subjects with nighttime dip 10-20% in 24-hour systolic ABP ([3]; 100 mg QD, Week 4, Part 2, FAS): 6 n | Subjects with nighttime dip <10% in 24-hour systolic ABP ([3]; 100 mg QD, Week 4, Part 2, FAS): 18 n | Subjects with nighttime dip >20% in 24-hour systolic ABP ([3]; 100 mg QD, Week 4, Part 2, FAS): 1 n | 11-Deoxycorticosterone, mean observed ([4]; Part 1, 12.5 mg BID, Wk 12): 8.0 ng/dL | 11-Deoxycorticosterone, mean observed ([4]; Part 1, 12.5 mg QD, BL): 8.3 ng/dL | 11-Deoxycorticosterone, mean observed ([4]; Part 1, 25 mg BID, Wk 12): 8.0 ng/dL | 11-Deoxycorticosterone, mean observed ([4]; Part 1, 50 mg QD, BL): 8.3 ng/dL | 11-Deoxycorticosterone, mean observed ([4]; Part 1, 100 mg QD, Wk 12): 8.4 ng/dL | 11-deoxycorticosterone [4, 8]: Transient increases | 11-Deoxycorticosterone, mean observed ([4]; Part 2, 100 mg QD, BL): 10.71 ng/dL | 11-deoxycorticosterone levels ([4]; summary of trial): unaffected | Clinical chemistry, hematology, coagulation, urinalysis changes from baseline to Week 8 ([5]; Part 1 or Part 2): no meaningful changes | Vital signs, physical examination, ECG parameters ([5]; Parts 1 and 2): no notable findings | Serum creatinine levels ([5]; active treatment cohorts compared with placebo, Parts 1 and 2): increased | Renin Activity, mean observed ([6]; Part 1, 12.5 mg BID): 1.299 µg/L/h | Renin Activity, mean observed ([6]; Part 1, 12.5 mg QD): 0.950 µg/L/h | Renin Activity, mean observed ([6]; Part 1, 25 mg BID): 1.104 µg/L/h | Renin Activity, mean observed ([6]; Part 1, 50 mg QD): 1.258 µg/L/h | Renin Activity, mean observed ([6]; Part 1, 100 mg QD): 0.956 µg/L/h | Renin Activity, mean observed ([6]; Part 2, 100 mg QD): 5.417 µg/L/h | Plasma renin activity ([6]; pharmacodynamic response, all doses, listed as lorundrostat): commensurate increase; also recorded: increased in all subjects treated with lorundrostat | 11-Deoxycortisol, mean observed ([7]; Part 1, 12.5 mg BID): 28.36 ng/dL | 11-Deoxycortisol, mean observed ([7]; Part 1, 12.5 mg QD): 29.07 ng/dL | 11-Deoxycortisol, mean observed ([7]; Part 1, 25 mg BID): 25.87 ng/dL | 11-Deoxycortisol, mean observed ([7]; Part 1, 50 mg QD): 31.14 ng/dL | 11-Deoxycortisol, mean observed ([7]; Part 1, 100 mg QD): 29.97 ng/dL | 11-deoxycortisol [7, 8]: Transient increases | 11-Deoxycortisol, mean observed ([7]; Part 2, 100 mg QD): 40.79 ng/dL

Source: patent US20260053812A1, “METHODS OF TREATING HYPERTENSION WITH A COMBINATION OF AN ALDOSTERONE SYNTHASE INHIBITOR AND A DIURETIC” (Mineralys Therapeutics, Inc., priority 2022, published 2026)
